Target: T1, HDM2 (Homo sapiens, UniProt Q00987)
T1 construct: Recombinant HDM2 (1.5 μg per well) in TBS-BSA buffer
Assay: Fluorescence polarisation competitive HDM2 binding assay
Conditions: fluorescence polarisation format; Table 1; read-out: IC50 In vitro competitive HDM2 binding assay
Experimental: This was carried out using a 96-well microtiter plate (Costar) format. Recombinant HDM2 (1.5 μg per well) in TBS-BSA buffer (50 mM Tris pH 7.4, 150 mM NaCl, and 0.1% BSA) was incubated for 5 min at room temperature in the presence of serially diluted test compound (in TBS-BSA buffer with a final concentration of 5% DMSO). Fluorescently labelled p53-derived peptide (fluorescein-[…]NH2, 0.2 μM) was added to each well and the plate was incubated at room temperature for 45 min. The fluorescence polarisation (excitation 485 nm, emission 520 nm) of the peptide was measured. IC50 values were calculated from dose-response curves.
The fluorescence polarisation competitive HDM2 binding assay described in Example 3 was used. Furthermore, the anti-proliferative potency of the compounds against three human tumour cell lines with different genetic make-up was also determined. […] The cell lines used were as follows: AGS, gastric adenocarcinoma, wild-type p53; H1299, large cell lung carcinoma, p53 null, low HDM2; SJSA-1, primitive multipotential bone sarcoma, wild-type p53, overexpressed HDM2.

T1 sequence (Q00987 whole entry): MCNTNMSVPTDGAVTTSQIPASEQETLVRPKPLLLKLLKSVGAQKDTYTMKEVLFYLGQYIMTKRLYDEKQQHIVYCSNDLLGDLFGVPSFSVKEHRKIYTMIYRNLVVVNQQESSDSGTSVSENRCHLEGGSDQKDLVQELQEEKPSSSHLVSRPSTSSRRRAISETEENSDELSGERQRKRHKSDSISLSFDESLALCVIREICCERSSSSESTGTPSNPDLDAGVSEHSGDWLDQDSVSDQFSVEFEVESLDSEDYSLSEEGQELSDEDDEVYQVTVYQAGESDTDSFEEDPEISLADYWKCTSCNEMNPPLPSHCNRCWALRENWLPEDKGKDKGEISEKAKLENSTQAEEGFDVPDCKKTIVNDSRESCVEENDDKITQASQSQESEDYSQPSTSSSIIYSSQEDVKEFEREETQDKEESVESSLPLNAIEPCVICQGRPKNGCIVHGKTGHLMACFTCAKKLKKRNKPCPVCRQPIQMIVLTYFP

| Compound | IC50 [µM] |
| --- | --- |
| CCOC(=O)c1[nH]c(C)c(S(=O)(=O)Nc2ccc(Cl)cc2)c1C [Compound 90, 4-(4-Chloro-phenylsulfamoyl)-3,5-dimethyl-1H-pyrrole-2-carboxylic acid ethyl ester] | 331 ± 52 |
| O=S(=O)(Nc1ccc(Cl)cc1)c1cc(Br)c(Br)s1 [Compound 125, 4,5-Dibromo-thiophene-2-sulfonic acid (4-chloro-phenyl)-amide] | 198 ± 17 |
| CC(C)CN(c1ccc(Cl)cc1)S(=O)(=O)c1cc([N+](=O)[O-])c(Cl)s1 [Compound 58, 5-Chloro-4-nitro-thiophene-2-sulfonic acid (4-chloro-phenyl)-isobutyl-amide] | 249 ± 30 |
| O=[N+]([O-])c1cc(S(=O)(=O)Nc2nc3ccccc3[nH]2)sc1Cl [Compound 59, 5-Chloro-4-nitro-thiophene-2-sulfonic acid (1H-benzo-imidazol-2-yl)-amide] | 40 ± 1 |
| O=[N+]([O-])c1cccc(S(=O)(=O)Nc2ccc(Cl)cc2Cl)c1 [Compound 22, N-(2,4-Dichlorophenyl)-3-nitrobenzenesulfonamide] | 441 ± 69 |
| O=[N+]([O-])c1ccc(NS(=O)(=O)c2cc([N+](=O)[O-])c(Cl)s2)cc1 [Compound 131, 5-Chloro-4-nitro-thiophene-2-sulfonic acid (4-nitro-phenyl)-amide] | 41 ± 4 |
| O=S(=O)(Nc1cc(C(F)(F)F)cc(C(F)(F)F)c1)c1ccc(Cl)s1 [Compound 11, 5-Chlorothiophene-2-sulfonic acid (3,5-bis-trifluoromethylphenyl)amide] | 435 ± 76 |
| O=[N+]([O-])c1csc(S(=O)(=O)Nc2ccc(C(F)(F)F)cc2)c1 [Compound 76, 4-Nitro-thiophene-2-sulfonic acid (4-trifluoromethyl-phenyl)-amide] | 366 ± 7 |
| O=[N+]([O-])c1csc(S(=O)(=O)NCCc2c[nH]c3ccccc23)c1 [Compound 77, 4-Nitro-thiophene-2-sulfonic acid [2-(1H-indol-3-yl)-ethyl]-amide] | 247 ± 61 |
| O=S(=O)(Nc1ccc(Cl)cc1)c1ccc2nsnc2c1 [Compound 121, Benzo[1,2,5]thiadiazole-5-sulfonic acid (4-chloro-phenyl)-amide] | 314 ± 29 |
| O=S(=O)(NCc1ccc(F)cc1)c1cc(Cl)c(O)c(Cl)c1 [Compound 127, 3,5-Dichloro-N-(4-fluoro-benzyl)-4-hydroxy-benzenesulfonamide] | 325 ± 24 |
| O=S(=O)(Nc1ccc(C(F)(F)F)cc1)c1cc(Cl)c(O)c(Cl)c1 [Compound 96, 3,5-Dichloro-4-hydroxy-N-(4-trifluoromethyl-phenyl)-benzenesulfonamide] | 449 ± 51 |
| O=[N+]([O-])c1cc(S(=O)(=O)Nc2ccc(Cl)cc2)sc1N1CCOCC1 [Compound 79, 5-Morpholin-4-yl-4-nitro-thiophene-2-sulfonic acid (4-chloro-phenyl)-amide] | 419 ± 31 |
| O=S(=O)(Nc1cc(C(F)(F)F)cc(C(F)(F)F)c1)c1c(Cl)nc2sccn12 [Compound 84, 6-Chloro-imidazo[2,1-b]thiazole-5-sulfonic acid (3,5-bis-trifluoro-methyl-phenyl)-amide] | 308 ± 17 |
| O=[N+]([O-])c1cc(S(=O)(=O)Nc2cccc(C(F)(F)F)c2)sc1Cl [Compound 1, 5-Chloro-4-nitrothiophene-2-sulfonic acid (3-trifluoromethylphenyl)amide] | 409 ± 84 |
| O=C(O)c1cccc(S(=O)(=O)Nc2cc(C(F)(F)F)cc(C(F)(F)F)c2)c1 [Compound 108, 3-(3,5-Bis-trifluoromethyl-phenylsulfamoyl)-benzoic acid] | 451 ± 118 |
| O=[N+]([O-])c1cc(S(=O)(=O)Nc2ccc(Cl)c(Cl)c2)ccc1Cl [Compound 30, 4-Chloro-N-(3,4-dichlorophenyl)-3-nitrobenzenesulfonamide] | 427 ± 3 |
| Cn1ncc(-c2ccc(S(=O)(=O)Nc3ccc(C(F)(F)F)cc3)s2)c1C(F)(F)F [Compound 31, 5-(1-Methyl-5-trifluoromethyl-1H-pyrazol-4-yl)-thiophene-2-sulfonic acid (4-trifluoromethylphenyl)-amide] | 350 ± 10 |
| O=S(=O)(Nc1ccc(Cl)cc1)c1ccc(Oc2ccccc2)nc1 [Compound 87, 6-Phenoxy-pyridine-3-sulfonic acid (4-chloro-phenyl)-amide] | 212 ± 27 |
| Cc1c(S(=O)(=O)Nc2cc(C(F)(F)F)cc(C(F)(F)F)c2)sc2ccc(Cl)cc12 [Compound 119, 5-Chloro-3-methyl-benzo[b]thiophene-2-sulfonic acid (3,5-bis-trifluoromethyl-phenyl)-amide] | 106 ± 13 |
| O=S(=O)(Nc1cc(C(F)(F)F)cc(C(F)(F)F)c1)c1cc(Br)c(Cl)s1 [Compound 114, 4-Bromo-5-chloro-thiophene-2-sulfonic acid (3,5-bis-trifluoromethyl-phenyl)-amide] | 293 |

| Compound | IC50 [µM] |
| --- | --- |
| O=S(=O)(NCc1ccc(C(F)(F)F)cc1)c1cc(Cl)c(O)c(Cl)c1 [Compound 110, 3,5-Dichloro-4-hydroxy-N-(4-trifluoromethyl-benzyl)-benzenesulfonamide] | 242 |
| O=S(=O)(NCCc1c[nH]c2ccccc12)c1cc(Cl)c(O)c(Cl)c1 [Compound 111, 3,5-Dichloro-4-hydroxy-N-[2-(1H-indol-3-yl)-ethyl]-benzenesulfonamide] | 448 |
| O=S(=O)(Nc1cc(C(F)(F)F)cc(C(F)(F)F)c1)c1ccc(S(=O)(=O)c2ccccc2)s1 [Compound 117, 5-Benzenesulfonyl-thiophene-2-sulfonic acid (3,5-bis-trifluoromethyl-phenyl)-amide] | 147 |
| O=S(=O)(Nc1cc(Cl)cc(Cl)c1)c1ccc(S(=O)(=O)c2ccccc2)s1 [Compound 25, 5-Benzenesulfonylthiophene-2-sulfonic acid (3,5-dichlorophenyl)amide] | 288 ± 39 |
| O=S(=O)(Nc1ccc(C(F)(F)F)cc1)c1ccc(Cl)s1 [Compound 9, 5-Chlorothiophene-2-sulfonic acid (4-trifluoromethylphenyl)amide] | 102 ± 13 |
| O=S(=O)(Nc1ccc(C(F)(F)F)cc1)c1cc(Br)c(Br)s1 [Compound 126, 4,5-Dibromo-thiophene-2-sulfonic acid (4-trifluoromethyl-phenyl)-amide] | 163 ± 27 |
| O=S(=O)(Nc1cc(C(F)(F)F)cc(C(F)(F)F)c1)c1cc(Br)c(Br)s1 [Compound 8, 4,5-Dibromothiophene-2-sulfonic acid (3,5-bis-trifluoromethylphenyl)amide] | 407 |
| Cc1ccc(S(=O)(=O)Nc2ccc(C(F)(F)F)cc2)cc1[N+](=O)[O-] [Compound 34, 4-Methyl-3-nitro-N-(4-trifluoromethylphenyl)benzenesulfonamide] | 295 ± 23 |
| CSc1ncc(-c2ccc(S(=O)(=O)Nc3cc(Cl)cc(Cl)c3)s2)cn1 [Compound 12, 5-(2-Methylsulfanyl-pyrimidin-5-yl)-thiophene-2-sulfonic acid (3,5-dichlorophenyl)-amide] | 374 ± 12 |
| O=S(=O)(Nc1cc(C(F)(F)F)cc(C(F)(F)F)c1)c1cc(Cl)c(O)c(Cl)c1 [Compound 95, N-(3,5-Bis-trifluoromethyl-phenyl)-3,5-dichloro-4-hydroxy-benzenesulfonamide] | 243 ± 11 |
| O=S(=O)(Nc1cc(C(F)(F)F)cc(C(F)(F)F)c1)c1ccc(-n2cccn2)cc1 [Compound 89, N-(3,5-Bis-trifluoromethyl-phenyl)-4-pyrazol-1-yl-benzenesulfonamide] | 275 ± 45 |
| O=S(=O)(Nc1ccc(Cl)cc1)c1ccc(Br)s1 [Compound 16, 5-Bromothiophene-2-sulfonic acid (4-chlorophenyl)amide] | 290 ± 54 |
| O=[N+]([O-])c1ccc(S(=O)(=O)Nc2ccc(Cl)cc2)cc1 [Compound 97, N-(4-Chloro-phenyl)-4-nitro-benzene-sulfonamide] | 394 ± 13 |
| O=[N+]([O-])c1cc(S(=O)(=O)Nc2cc(C(F)(F)F)cc(C(F)(F)F)c2)ccc1Cl [Compound 29, N-(3,5-Bis-trifluoromethylphenyl)-4-chloro-3-nitrobenzenesulfonamide] | 129 ± 22 |
| O=S(=O)(Nc1ccc(C(F)(F)F)cc1)c1cc(Br)c(Cl)s1 [Compound 15, 4-Bromo-5-chlorothiophene-2-sulfonic acid (4-trifluoromethylphenyl)amide] | 218 ± 15 |
| O=S(=O)(Nc1cc(C(F)(F)F)cc(C(F)(F)F)c1)c1ccc(-c2ncco2)cc1 [Compound 14, N-(3,5-Bis-trifluoromethylphenyl)-4-oxazol-2-yl-benzenesulfonamide] | 448 ± 55 |
| O=S(=O)(Nc1ccc(Cl)cc1)c1cc(Cl)c(O)c(Cl)c1 [Compound 94, 3,5-Dichloro-N-(4-chloro-phenyl)-4-hydroxy-benzenesulfonamide] | 227 ± 7 |
| CCOC(=O)c1sc(S(=O)(=O)Nc2ccc(Cl)cc2)nc1C [Compound 93, 2-(4-Chloro-phenylsulfamoyl)-4-methyl-thiazole-5-carboxylic acid ethyl ester] | 373 ± 373 |
| O=S(=O)(Nc1cc(C(F)(F)F)cc(C(F)(F)F)c1)c1ccc(-c2ccccn2)s1 [Compound 124, 5-Pyridin-2-yl-thiophene-2-sulfonic acid (3,5-bis-trifluoromethyl-phenyl)-amide] | 265 ± 64 |
| O=S(=O)(Nc1cc(C(F)(F)F)cc(C(F)(F)F)c1)c1ccc2nsnc2c1 [Compound 122, Benzo[1,2,5]thiadiazole-5-sulfonic acid (3,5-bis-trifluoromethyl-phenyl)-amide] | 165 ± 8 |
